Assay results published in BindingDB's records for doi:10.1021/jm00111a038 (Ici Pharmaceuticals Group, 1991).

Assay: Inhibition of 5-lipoxygenase in human whole blood.

| Compound | IC50 [µM] |
| --- | --- |
| Cc1cnc(C(O)c2cccc(OCc3ccc(-c4ccccc4)cc3)c2)[nH]1 (stereo not drawn) | 7 |
| CCCCCCCCCCOc1cccc(C(O)c2ncc(C)[nH]2)c1 (stereo not drawn) | 6.3 |
| OC(c1cccc(OCc2ccc3ccccc3c2)c1)c1nccs1 (stereo not drawn) | 5.1 |
